Measurements reported in paper PMC6701825, “Antiproliferative and Antimigratory Effects of a Novel YAP–TEAD Interaction Inhibitor Identified Using in Silico Molecular Docking” (Journal of Medicinal Chemistry, 2019).

Key:
TEAD3 = biological target: T1, TEAD3 (Homo sapiens, UniProt Q99594); assay: GAL4-TEAD3 fusion / 5xGAL4-secNLUC reporter in HeLa cells; type: cell-based; conditions: 100 μM, 6 h
T1 construct: #18881 (FLAG-YAP); host or cells: HeLa
Description: TEAD proteins (TEAD1–4) display a high degree of sequence conservation in residues that create the hydrophobic pocket that is essential for YAP binding.[51] YAP proteins also display a high degree of conservation in residues that interact with this pocket.[51] We therefore tested whether CPD3.1 was able to inhibit YAP-induced activity of TEAD1, TEAD2, TEAD3, and TEAD4. To quantify the effect of CPD3.1 on the activity of each individual TEAD paralog, while excluding interference from endogenously expressed TEAD1–4 proteins, we expressed each TEAD paralog (TEAD1–4) fused to the yeast GAL4 DNA-binding domain. Cells were transfected with the GAL4–TEAD expression vector together with a secreted nanoluciferase reporter gene vector under control of a promoter containing five GAL4 DNA-binding elements. This system allows us to study the effect of CPD3.1 on the activity of each individual TEAD protein in isolation, without interference from endogenously expressed transcription factors. In addition, the cells were co-transfected with a YAP expression vector to activate the GAL4–TEAD fusion-dependent transcription (see Supplement Figure 9). Basal activities of TEAD1, TEAD2, TEAD3, and TEAD4 were inhibited by CPD3.1 (Figure 7A–D). […]
Figure 7 Compound 3.1 inhibits TEAD1, TEAD2, TEAD3, and TEAD4 activities. […] Secreted nano-luciferase activity was quantified in the conditioned media. […]

[1] = biological target: T2, myc-TEAD1:GFP-YAP complexes (Homo sapiens, UniProt P28347); assay: Co-immunoprecipitation of myc-TEAD1 and GFP-YAP; type: binding; conditions: 200 μM CPD3
T2 construct: #17843 (GFP-YAP1); host or cells: HeLa
T2 sequence (P28347 whole entry, one chain of several): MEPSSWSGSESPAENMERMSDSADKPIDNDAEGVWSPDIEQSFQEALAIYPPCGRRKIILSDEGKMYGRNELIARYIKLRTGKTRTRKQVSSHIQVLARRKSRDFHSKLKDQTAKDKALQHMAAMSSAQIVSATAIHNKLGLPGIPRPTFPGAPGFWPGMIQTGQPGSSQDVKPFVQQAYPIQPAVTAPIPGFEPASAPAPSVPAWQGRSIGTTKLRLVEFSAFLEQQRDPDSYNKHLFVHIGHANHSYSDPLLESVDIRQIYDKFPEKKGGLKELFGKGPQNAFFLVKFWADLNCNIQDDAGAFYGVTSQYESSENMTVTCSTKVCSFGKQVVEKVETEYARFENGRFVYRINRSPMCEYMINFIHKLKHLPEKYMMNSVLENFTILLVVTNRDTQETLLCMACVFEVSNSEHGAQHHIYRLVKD
Procedure: Figure 1 BUDE screening-identified compound 3 for TEAD inhibition. (A) HeLa cells were stably transduced with a lentiviral viral vector containing 8×TEAD-secreted nanoluciferase reporter gene (TEAD-NLUC). Cells were transfected with non-targeting siRNA (siNEG), siRNA targeting YAP (siYAP), control adenoviral vector or an adenovirus expression constitutively active YAPS127A (Ad:YAP). Culture media were conditioned for 6 h and assayed for secreted nanoluciferase activity (n = 3). (B) HeLa cells stably transduced with TEAD-NLUC were treated with 100 μM of indicated compound for 6 h. Cell conditioned media were assayed for nanoluciferase activity (n = 3). […] (D) Recombinant GST-TEAD1 protein bound to glutathione resin was incubated with 200 μM of the indicated compounds and HEK293 cell lysate containing endogenous YAP protein for 18 h at 4 °C. The resin was washed, and bound YAP eluted and quantified by Western blotting (n = 2). […] Co-immunoprecipitated YAP or TEAD was quantified by Western blotting. […]
HeLa cells were transiently transfected with either pRK5-myc-TEAD1 (Addgene #33109) or pEGFP-C3-YAP1 (Addgene #17843). […] Following washing, immunoprecipitated proteins were eluted by boiling in sodium dodecyl sulfate (SDS) buffer (50 mM Tris pH 6.8, 20% glycerol, 2% SDS) and analyzed by Western blotting.

T1 sequence (Q99594 whole entry, the tested form may be a part): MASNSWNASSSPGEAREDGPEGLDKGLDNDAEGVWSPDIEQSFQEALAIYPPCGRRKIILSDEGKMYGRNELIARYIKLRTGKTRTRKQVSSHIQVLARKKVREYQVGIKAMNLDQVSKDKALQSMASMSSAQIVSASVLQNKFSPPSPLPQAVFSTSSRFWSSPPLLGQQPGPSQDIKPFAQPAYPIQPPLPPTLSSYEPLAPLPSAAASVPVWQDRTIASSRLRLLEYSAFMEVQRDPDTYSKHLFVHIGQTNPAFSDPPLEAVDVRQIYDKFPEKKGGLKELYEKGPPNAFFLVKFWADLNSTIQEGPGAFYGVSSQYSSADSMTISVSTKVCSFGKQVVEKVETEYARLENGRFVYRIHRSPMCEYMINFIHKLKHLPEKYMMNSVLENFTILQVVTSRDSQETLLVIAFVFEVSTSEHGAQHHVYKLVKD

Cc1ccc2c(c1)c1c3n2CCNC3CCC1 (stereo not shown) [CPD3.1] was tested, and the “basal activity of GAL4-TEAD3” value (TEAD3) was “inhibited” and the “YAP-stimulated activity of GAL4-TEAD3” value (TEAD3; YAP overexpression) was “significantly inhibited”.
In the case of Cc1ccc2c(c1)c1c3n2CCN(CC(O)CN2CCN(C(=O)c4ccco4)CC2)C3CCC1 (stereo not shown) [CPD3], the “binding of GFP-YAP to immunoprecipitated myc-TEAD1 (myc-Trap co-IP)” value [1] is reported as “inhibited binding of GFP–YAP” and the “binding of myc-TEAD1 to affinity-purified GFP-YAP (GFP-Trap co-IP)” value [1] is reported as “inhibited binding of myc-TEAD1”.
